From patent US20070202165A1, “Method for a supplemental dietary composition having a multi-phase dissolution profile” (priority 2006, published 2007)
“Also recorded” adds a separate entry of the source.

Assays:
Assay type in all cases: physicochemical
[1] = Time to dissolve in water, estimated by visual inspection, regular vs fine-milled ingredients; conditions: for Time taken to dissolve: 100 mL water, magnetic stirring
Experimental: In order to determine the effect of fine-milling on the dissolution rate, initial testing was performed to examine the rate of dissolution of common supplemental dietary ingredients. For the purposes of this disclosure, the term “regular” as used herein makes reference to non-fine-milled particles. 100 mL of water was placed into a 250 mL beaker and a magnetic stirrer bar was added to the beaker. The beaker was then placed on a magnetic stirrer was set to constant speed. […] The time required to dissolve was estimated by visual inspection. Equal amounts of the fine-milled ingredients were then added to the water and the time required to dissolve was estimated by visual inspection.

[2] = Kinetic dissolution experiment: samples filtered at 1 and 5 minutes; conditions: for weight of unfiltered sample: 1 g in 50 mL water, Whateman 41 filter
Experimental: In order to expand on the results of the aforenoted experiments, a kinetic experiment was conducted to examine the change in the dissolution rate over short time periods.
1 g of sample was added to 50 mL water in a flask with a magnetic stir bar on a stirrer set at constant speed. Separate samples were filtered at 1 and 5 minutes. The pre-weighed filter papers (Whateman 41, particle retention 20-25 μm) were allowed to dry and the amount of sample remaining on the filter paper was determined.

[3] = Solubility test with filtration: amount dissolved until saturated and dry powder remaining on filter paper; conditions: gravity filtration, filter paper dried
Experimental: A second experiment relating to fine-milling and potential increase in bioavailability was conducted. In order to test the capacity of fine-milling to improve the rate bioavailability of substances, a simple test was performed. The test was conceived to mimic various elements involved in the processes of oral administration of a nutritional supplement. The key parameters involved were rate of dissolution and solubility, as it is understood that an ingested nutrient must be dissolved or reduced to a bio-transportable size in order to be utilized biochemically by the body.
The rates of dissolution and solubility of regular common nutritional supplements were compared to fine-milled versions within a fixed time.
100 mL of water was added to a 250 mL beaker and a magnetic stirring bar was placed in the beaker. The beaker was placed on a magnetic stirrer and stirred with low speed. 1 g of a given supplemental dietary ingredient powder was added incrementally to the beaker with the stirring speed constant until the solution visually appeared saturated. […]
The ‘Fold Change’ represents the change in the amount of substance unable to pass through the filter as calculated by the amount of unfiltered regular substance divided by the amount of unfiltered fine-milled substance and represents the potential theoretical improvement in bioavailability.

CN(CC(=O)O)C(=N)N.O [Creatine Monohydrate]
Time taken to dissolve ([1]; Powder type Fine-milled): <5 min | Time taken to dissolve ([1]; Powder type Regular (non-fine-milled)): <5 min | Dissolution of fine-milled compared with regular ingredient (in words) ([1]; fine-milled vs regular, Monohydrate): dissolved at the same rate in both the fine-milled and regular formats; also recorded: did not display a difference dependent on particle size | Time to filter, fine-milled compared with regular samples (in words) ([2]; 1- and 5-minute intervals): consistently longer for the fine-milled samples | weight of unfiltered sample ([2]; Fine-milled, filtered at 1-minute interval, listed as Creatine monohydrate, Monohydrate): 0.33 g | weight of unfiltered sample ([2]; Fine-milled, filtered at 1-minute interval, listed as creatine, Monohydrate): 0.32 g | weight of unfiltered sample ([2]; Fine-milled, filtered at 5-minute interval): 0.27 g | weight of unfiltered sample ([2]; Regular, filtered at 1-minute interval, listed as Creatine monohydrate, Monohydrate): 0.32 g | weight of unfiltered sample ([2]; Regular, filtered at 1-minute interval, listed as creatine, Monohydrate): 0.33 g | weight of unfiltered sample ([2]; Regular, filtered at 5-minute interval): 0.40 g | Dry Powder On Filter ([3]; Powder type Fine-milled): 0.01 g | Dry Powder On Filter ([3]; Powder type Regular): 0.19 g
